Test results taken from patent publication US20090043123A1, “Dilute Stabilized Peracetic Acid Production and Treatment Process” (priority 2007, published 2009).

Key:
[1] = Stability/decomposition of peracetic acid formed in buffered aqueous medium (Example 1, FIG. 4); format: physicochemical; conditions: 25° C.
Excerpt: The mole ratio of hydrogen peroxide to acetic anhydride used in this Example 1 was 5.7 moles H2O2 per mole of acetic anhydride, a mole ratio that provided a large stoichiometric excess of hydrogen peroxide. Three pH values were used: 10.0, 6.8 and 4.5. The aqueous medium in each study was appropriately buffered to maintain the specific pH value throughout the duration of the run.
In each of the three runs, the operating procedure was as follows. A dilute aqueous buffered hydrogen peroxide solution, containing 585 ppm H2O2, was prepared and maintained at a temperature of 25° C. No hydrogen peroxide stabilizers were added to the solution. Acetic anhydride, undiluted (i.e., 100%) and in an amount sufficient to provide the desired 5.7:1 mole ratio of H2O2:acetic anhydride, was added to the buffered hydrogen peroxide solution. Measurements of peracetic acid and hydrogen peroxide concentrations were obtained from samples taken periodically over a period of 180 minutes. Results of these three studies, as peracetic acid concentration vs. time, are plotted in the graph shown as FIG. 4.

microorganisms = conditions: as low as 1 or 2 ppm peracetic acid; cited from earlier work
[2] = aqueous solution; cited from earlier work
[3] = cited from earlier work

Peracetic acid
peracetic stability ([1]; pH 6.8, buffered aqueous medium, 5.7:1 H2O2:acetic anhydride, followed over 180 minutes): relatively good
decomposition of the peracetic acid formed ([1]; pH 10.0, buffered aqueous medium, after peracetic acid formation was complete): high
activity at very low concentrations (microorganisms): very active
acid dissociation constant (pKa) [2]: 8.2

CC(=O)OC(C)=O [Acetic anhydride]
solubility in water [3]: less than 3 wt %
